Tested on: β-galactosidase expression in C2C12 myoblasts cotransfected with Op8iME and Lac-R
Assay: Time course of IPTG induction of β-galactosidase expression (chemiluminescent assay of cell lysates)
Format: cell-based
Conditions: 5 mM IPTG added sixteen hours post-transfection
Protocol: The time course of IPTG induction of β-galactosidase expression in one of the muscle enhancer and SV40 intron containing constructs was determined. The kinetics of Op8iME induction in C2C12 myoblasts were plotted over the course of 48 hours. Op8iME and the Lac-R were transiently cotransfected into C2C12 myoblasts. Sixteen hours post-transfection, 5 mM IPTG was added. β-galactosidase expression was monitored in cell lysates by chemiluminescent assay (Promega) at a selection of time-points from 1 h to 48 h. IPTG-dependent induction of β-galactosidase began at 4h and increased over time, with a maximum peak at 24 h (FIG. 11).

Question: For `CC(C)S[C@@H]1O[C@H](CO)[C@H](O)[C@H](O)[C@H]1O` [IPTG, isopropylthiogalactoside], which “time of maximum peak of IPTG-dependent induction of β-galactosidase” value is on record?
Answer: 24 h

Question: And the “start of IPTG-dependent induction of β-galactosidase” value (time-points 1 h to 48 h)?
Answer: 4 h

Reference: patent publication US20030113784A1, “Regulated expression of recombinant DNA” (priority 2001, published 2003)
